Patent US20140243401A1, “METHODS OF SCREENING COMPOUNDS THAT ARE CYTOTOXIC TO TUMOR CELLS AND METHODS OF TREATING TUMOR CELLS USING SUCH COMPOUND” (The Johns Hopkins University, priority 2010, published 2014)
Converted amounts (≈) assume the structure as drawn.

Columns and labels:
MCF 7 cells = experiment: clonogenic assay; format: cell-based, human; conditions: MCF 7, FIG. 4(C)
Experimental: In this assay, the effectiveness of specific agents on cell survival and proliferation can be measured in a functional sense. After treatment, surviving cells are re-plated to determine whether the surviving cells are still capable of proliferation. Therefore, this if a more direct measure of cell survival and function.
4×10^5 cells were plated in 25 cm^2 flasks. After overnight culture, cells are treated with compounds for specified times and concentrations. After drug treatment, cells are trypsinized and equal numbers of treated and control cells are plated in triplicate in 60-mm dishes at a density of 500 cells/dish in medium without drugs. Clones are stained and counted after 7-10 days
MCF 7 cells were treated with vehicle, C31 at increasing doses, or Riv7d.

Human hepatoma cell line = experiment: XTT cytotoxicity assay, human hepatoma cell line; format: cell-based; conditions: 1 human hepatoma cell line, read-out: LC50 (the source's name)
Experimental: (§1) Cytotoxicity can be easily measured using XTT assays, which provide an indication of mitochondrial activity. The XTT assay is a non-radioactive alternative for the [^51Cr] release cytotoxicity assay. XTT is a tetrazolium salt that is reduced to a formazan dye only by metabolically active, viable cells. The reduction of XTT is measured spectrophotometrically as OD490-OD650. Thus, cells that are actively metabolizing will form reaction product when subjected to XTT measurement.
(§2) For this experiment, cells were cultured under standard culture conditions. MCF7 human breast cancer cells were cultured in DMEM containing 5 mM glucose medium with 10% fetal calf serum, 0.01 mg/ml insulin and 1% penicillin/streptomycin. To measure the cytotoxicity of specific compounds against cancer cells, 9×10^3 MCF7 cells were plated per well in 96-well plates. Following overnight culture, the compounds, dissolved in DMSO, were added to the wells in 1 μl volume at specified concentrations. Vehicle controls were run for each experiment. Each condition was run in triplicate. […] Plates were read at OD490 on a PerkinElmer Victor 1420. […]
(§3) Using the XTT assay, LC50 values for C31 were determined for numerous human cancer cell lines and human hepatocytes, as shown in the following table: […]

[1] = tested on: Human breast cancer cell lines; experiment: XTT cytotoxicity assay, human breast cancer cell lines; format: cell-based; conditions: 5 human breast cancer cell lines, read-out: LC50 (the source's name)
Experimental: as §1, §2, §3

Type I cytosolic FAS = molecular target: T1, Type I cytosolic FAS (Homo sapiens, UniProt P49327); experiment: Type I cytosolic FAS activity, [14C]malonyl-CoA incorporation into lipid in MCF7 cell lysates; format: biochemical; conditions: MCF7 human breast cancer cell lysates, read-out: IC50, inhibition of Type I cytosolic FAS activity
T1 construct: incorporation into lipid in MCF7 human breast cancer cell lysates; endogenous in cells; host or cells: MCF7 human breast cancer cell lysate
T1 sequence (P49327 whole entry): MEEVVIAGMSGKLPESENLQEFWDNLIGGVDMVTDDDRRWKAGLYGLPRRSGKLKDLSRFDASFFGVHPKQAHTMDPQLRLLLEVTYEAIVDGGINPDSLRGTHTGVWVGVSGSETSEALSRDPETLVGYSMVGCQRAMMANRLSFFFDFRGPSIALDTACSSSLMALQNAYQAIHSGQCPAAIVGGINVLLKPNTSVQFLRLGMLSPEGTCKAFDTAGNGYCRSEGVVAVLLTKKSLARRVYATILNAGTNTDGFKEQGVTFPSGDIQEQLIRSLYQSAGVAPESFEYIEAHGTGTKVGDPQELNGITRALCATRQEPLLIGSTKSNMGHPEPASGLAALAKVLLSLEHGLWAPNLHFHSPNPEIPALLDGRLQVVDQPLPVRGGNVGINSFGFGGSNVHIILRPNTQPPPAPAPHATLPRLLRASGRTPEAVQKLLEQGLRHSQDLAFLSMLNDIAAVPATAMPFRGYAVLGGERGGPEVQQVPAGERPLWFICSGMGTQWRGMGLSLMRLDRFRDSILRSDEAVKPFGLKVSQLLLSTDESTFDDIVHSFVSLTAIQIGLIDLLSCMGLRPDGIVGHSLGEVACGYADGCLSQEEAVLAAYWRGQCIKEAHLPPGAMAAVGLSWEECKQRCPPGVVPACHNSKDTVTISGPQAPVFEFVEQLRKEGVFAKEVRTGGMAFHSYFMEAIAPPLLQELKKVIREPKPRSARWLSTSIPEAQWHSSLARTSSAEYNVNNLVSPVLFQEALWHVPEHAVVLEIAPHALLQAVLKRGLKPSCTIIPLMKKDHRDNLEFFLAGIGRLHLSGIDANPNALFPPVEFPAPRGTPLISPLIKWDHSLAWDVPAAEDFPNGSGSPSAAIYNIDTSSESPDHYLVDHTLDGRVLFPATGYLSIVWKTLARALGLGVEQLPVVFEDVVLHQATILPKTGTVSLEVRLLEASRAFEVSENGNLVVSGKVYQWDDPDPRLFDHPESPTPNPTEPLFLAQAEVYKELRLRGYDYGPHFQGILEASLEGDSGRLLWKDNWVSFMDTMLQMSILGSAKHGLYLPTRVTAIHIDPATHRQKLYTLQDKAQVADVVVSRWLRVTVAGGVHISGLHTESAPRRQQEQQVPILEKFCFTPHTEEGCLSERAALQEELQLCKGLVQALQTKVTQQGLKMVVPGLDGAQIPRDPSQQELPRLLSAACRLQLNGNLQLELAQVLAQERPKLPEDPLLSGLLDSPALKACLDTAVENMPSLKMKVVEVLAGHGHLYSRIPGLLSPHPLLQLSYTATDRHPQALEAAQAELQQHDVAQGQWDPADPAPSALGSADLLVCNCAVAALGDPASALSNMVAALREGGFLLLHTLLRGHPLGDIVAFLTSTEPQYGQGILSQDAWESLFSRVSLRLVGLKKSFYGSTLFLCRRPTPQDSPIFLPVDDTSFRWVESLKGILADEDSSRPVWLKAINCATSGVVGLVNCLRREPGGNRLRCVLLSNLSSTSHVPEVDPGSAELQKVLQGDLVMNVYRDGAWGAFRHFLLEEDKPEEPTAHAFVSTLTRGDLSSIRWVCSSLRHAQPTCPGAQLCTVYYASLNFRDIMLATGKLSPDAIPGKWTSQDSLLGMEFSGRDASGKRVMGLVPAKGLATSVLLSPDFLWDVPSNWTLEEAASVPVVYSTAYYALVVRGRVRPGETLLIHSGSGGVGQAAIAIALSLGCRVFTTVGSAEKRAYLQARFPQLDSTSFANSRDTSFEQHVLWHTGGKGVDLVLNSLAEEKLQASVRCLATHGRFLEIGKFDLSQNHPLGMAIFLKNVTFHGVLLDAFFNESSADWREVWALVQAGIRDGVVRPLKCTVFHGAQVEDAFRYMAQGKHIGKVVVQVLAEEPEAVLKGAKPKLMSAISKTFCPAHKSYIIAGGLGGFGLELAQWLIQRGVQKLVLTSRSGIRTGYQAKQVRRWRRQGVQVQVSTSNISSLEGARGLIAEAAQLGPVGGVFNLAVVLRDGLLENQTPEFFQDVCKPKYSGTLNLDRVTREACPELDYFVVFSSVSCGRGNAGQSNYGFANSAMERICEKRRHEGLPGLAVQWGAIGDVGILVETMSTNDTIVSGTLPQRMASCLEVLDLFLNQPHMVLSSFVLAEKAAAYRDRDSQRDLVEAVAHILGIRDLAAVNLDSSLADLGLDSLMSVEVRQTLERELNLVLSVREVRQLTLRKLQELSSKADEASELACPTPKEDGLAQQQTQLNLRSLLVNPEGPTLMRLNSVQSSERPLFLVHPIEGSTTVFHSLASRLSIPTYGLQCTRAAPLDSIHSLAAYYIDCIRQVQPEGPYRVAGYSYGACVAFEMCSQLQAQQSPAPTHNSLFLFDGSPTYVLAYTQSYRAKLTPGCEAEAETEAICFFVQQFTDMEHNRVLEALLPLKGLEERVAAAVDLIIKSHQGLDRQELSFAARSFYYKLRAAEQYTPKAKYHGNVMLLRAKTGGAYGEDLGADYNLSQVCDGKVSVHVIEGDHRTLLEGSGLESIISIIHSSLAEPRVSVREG
Excerpt: The invention provides for methods that involve determining and/or measuring Type I and mmFAS activity. Methods of measuring Type I FAS activity are known in the art. (See, e.g., U.S. Pat. Nos. 5,759,837 and 5,981,575, which are hereby incorporated by reference in their entirety). For example, Type I FAS activity may be measured in whole cells by monitoring the incorporation of [14C]acetate into total lipids. In cell lysates, Type I FAS activity may be measured by monitoring the incorporation of [14C] from malonyl CoA into total lipids. Alternatively, Type I FAS activity may be determined using purified enzyme with acetyl CoA and malonyl CoA as substrates by measuring incorporation of radioactivity or measuring oxidation of NADPH spectrophotometrically. To test the inhibition of Type I FAS activity, a test compound is added to the reaction mixture.

[2] = tested on: HCT116 human colon cancer xenograft; experiment: tumor xenograft size, HCT116; format: in vivo, Athymic Nude mice; conditions: 50 mg/kg
Experimental: (§4) Xenograft studies were performed using various mmFAS inhibitors disclosed herein. Human cancer xenograft studies are known in the art. (See Pizer et al., Cancer Res. 56:1189-1193, 1996; Pizer et al., Cancer Res. 60: 213-218, 2000; Testa et al., Oncogene 24: 7455-7464, 2005).
(§5) In particular, C31 mouse efficacy studies were conducted in order to evaluate anti-neoplastic activity of C31 in vivo. Athymic Nude mice were implanted with HCT116 human colon, SKOV3 human ovarian or OVCAR3 human ovarian cancer cell lines and were treated when the grown tumor xenografts reached at least 150 to 200 mm^3.^1 ^1 Compounds were solubilized in TEP (80% polyethylene glycol (PEG) 400, 10% ethanol, 10% tween-80) in a volume of 50 μL.

[3] = tested on: SKOV3 human ovarian cancer cells; experiment: JC-1 staining, mitochondrial membrane potential in SKOV3 cells; format: cell-based; conditions: SKOV3, drug in DMSO applied 30 min prior to staining
Excerpt: JC-1 staining is an indicator of mitochondrial membrane potential; with this assay, mitochondria within cells stained with this fluorescent dye emit a wavelength in the red spectrum when mitochondrial membrane potential is intact. When mitochondria are depolarized, the wavelength of the spectrum emitted changes to green. Therefore, the ratio of red/green fluorescence will give an indication of the intactness of the membrane potential of mitochondria, and thus mitochondrial function.
The left panels show granular red-staining indicating mitochondria with intact membrane potential is brightest in control, and decreases with increasing concentrations of C31. Conversely, the right panels show the diffuse cytoplasmic green-staining which indicates mitochondrial depolarization, is dimmest in control and brightest at the highest concentration of C31 tested. Drug was solubilized in DMSO and applied for 30 min prior to staining.

[4] = tested on: OVCAR3 human ovarian cancer xenograft; experiment: tumor xenograft size, OVCAR3; format: in vivo, Athymic Nude mice; conditions: Study 1129063207, OVCAR-3, oral b.i.d. 11 days, 50 mg/kg
Experimental: as §4, §5

[5] = tested on: AMP-activated protein kinase (AMPK); experiment: AMPK activation (pAMPK Western blot) in MCF 7 cells at varying glucose and oxygen; format: cell-based, human; conditions: MCF 7, 1 mM or 5 mM glucose, 1% or 21% oxygen, FIGS. 12, 13
Experimental: FIG. 12 A illustrates the effects of varying oxygen and glucose concentrations on AMPK activation over time in the presence of C31 in MCF 7 cells.
Determination of AMP-activated protein kinase status was carried out using the procedure described above. Cells were grown in 6-well plates at 5×10^4 per well and incubated overnight. Cells were cultured in 1 mM or 5 mM glucose at either 1% or 21% (ambient) oxygen levels. These conditions were employed for treatment with vehicle, C31, or Riv7d. Following drug treatment, the cells were harvested in Laemmli buffer and boiled for 5 minutes. Proteins were separated on a 4-15% SDS-PAGE gradient gel and transferred to a nitrocellulose membrane. Antibodies to pAMPK and AMPK were obtained from Cell Signaling.

Which “viability in clonogenic assay” value (MCF 7 cells) does the source give for `CCCCCCCCC1(C)SC(=O)C=C1OCC(=O)Nc1ccc(Cl)cc1` (stereo not drawn) [Compound C31] here?
Its value is “dose-dependent decrease in viability”.

And the CC50 (Human hepatoma cell line)?
The CC50 was 5 µg/mL (≈ 12.2 µM).

What about the CC50 [1] of the same compound?
The CC50 was 3.3 to 16.7 µg/mL (≈ 8.05 to 40.7 µM).

And the IC50 (Type I cytosolic FAS)?
The IC50 was 17.8 µM.

What about the “Average Tumor Size Endpoint (% Change)” value ([2]; Study 72406, HCT-116, IP b.i.d. 8 days) of the same compound?
The value was −59 % Change.

And the “Average Tumor Size Endpoint (% Change)” value ([2]; Study 101707, HCT-116, oral b.i.d. 16 days)?
The value was “+256 % Change”.

And the “mitochondrial depolarization (JC-1 staining)” value [3]?
The value was “depolarization of the mitochondria in the SKOV3 human ovarian cancer cells which is dose-dependent”.

And the “Average Tumor Size Endpoint (% Change)” value [4]?
The value was −59 % Change.

And the “AMPK phosphorylation (quantitative Western blots)” value [5]?
Its value is “increased phosphorylation of AMPK”.
